Data taken from patent publication US9034311B2, “Pyridin-2(1 H)-one derivatives as JAK inhibitors” (ALMIRALL, S.A., priority 2011, dated 2015).

Legend:
Assay type in all cases: biochemical
[1] = target: T1, human JAK3 (aa 795-1124) catalytic domain (Homo sapiens, UniProt P52333); assay: In vitro JAK kinase assay (TR-FRET), JAK3; settings: ATP 0.6 μM, peptide 140 nM, 30 minutes at room temperature
T1 construct: JAK3 (aa 795-1124); purchased Carna Biosciences; host or cells: baculovirus expression system (insect cells)
T1 sequence (P52333 795-1124): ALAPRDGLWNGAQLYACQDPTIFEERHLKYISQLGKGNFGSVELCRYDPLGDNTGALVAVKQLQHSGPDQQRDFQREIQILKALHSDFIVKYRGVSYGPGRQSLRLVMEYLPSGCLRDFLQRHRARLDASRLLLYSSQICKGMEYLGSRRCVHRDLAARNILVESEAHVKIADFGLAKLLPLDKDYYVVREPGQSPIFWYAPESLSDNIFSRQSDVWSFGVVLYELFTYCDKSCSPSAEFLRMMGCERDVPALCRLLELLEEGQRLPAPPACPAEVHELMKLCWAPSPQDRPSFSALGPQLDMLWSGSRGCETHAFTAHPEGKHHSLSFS
Description: (§1) Compounds were screened for their ability to inhibit JAK1, JAK2 and JAK3 using the assays as indicated below.
(§2) The catalytic domains of human JAK1 (aa 850-1154), JAK2 (aa 826-1132), JAK3 (aa 795-1124) and Tyk2 (aa 871-1187) were expressed as N-terminal GST-fusion proteins using a baculovirus expression system and were purchased from Carna Biosciences. The enzymatic activity was assayed using as substrate a biotinylated peptide, poly (GT)-Biotin (CisBio). The peptide concentration in the reactions was 60 nM for JAK1, 20 nM for JAK2, 140 nM for JAK3 and 50 nM for Tyk2. The degree of phosphorylation was detected by TR-FRET (time-resolved fluorescence energy transfer).
(§3) IC50s of compounds were measured for each kinase in a reaction mixture containing the enzyme, ATP and the peptide in 8 mM MOPS (pH 7.0), 10 mM MgCl2, 0.05% β-mercaptoethanol, 0.45 mg/ml BSA. The ATP concentration in the reactions was 3 μM for JAK1, 0.2 μM for JAK2, 0.6 μM for JAK3 and 1.8 μM for Tyk2. The enzymatic reactions took place for 30 minutes at room temperature. Then, the reactions were stopped with 20 μL of quench detection buffer (50 mM HEPES, 0.5 M KF, EDTA 0.25 M, 0.1% (w/v) BSA, pH 7.5) containing 0.115 μg/mL of anti-phosphoTyr (PT66)-Cryptate (CisBio) and a variable concentration of SA-XL665 (CisBio) to keep the SA-B ratio constant. Incubate for 3 h and read on Victor 2V spectrofluorometer (Perkin Elmer) set to read fluorescence resonance energy transfer.

[2] = target: T2, human JAK1 (aa 850-1154) catalytic domain (Homo sapiens, UniProt P23458); assay: In vitro JAK kinase assay (TR-FRET), JAK1; settings: ATP 3 μM, peptide 60 nM, 30 minutes at room temperature
T2 construct: human JAK1 (aa 850-1154); purchased Carna Biosciences; host or cells: baculovirus expression system (insect cells)
T2 sequence (P23458 850-1154): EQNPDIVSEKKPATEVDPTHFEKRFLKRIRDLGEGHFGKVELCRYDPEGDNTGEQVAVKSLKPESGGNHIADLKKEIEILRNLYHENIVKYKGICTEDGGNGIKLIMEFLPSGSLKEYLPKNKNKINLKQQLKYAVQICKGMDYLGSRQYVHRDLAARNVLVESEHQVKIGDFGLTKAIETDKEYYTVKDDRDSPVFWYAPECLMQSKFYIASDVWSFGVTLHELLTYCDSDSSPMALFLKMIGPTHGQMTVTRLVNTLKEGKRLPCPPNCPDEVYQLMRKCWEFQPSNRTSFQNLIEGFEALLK
Description: as §1, §2, §3

[3] = target: T3, human JAK2 (aa 826-1132) catalytic domain (Homo sapiens, UniProt O60674); assay: In vitro JAK kinase assay (TR-FRET), JAK2; settings: ATP 0.2 μM, peptide 20 nM, 30 minutes at room temperature
T3 construct: JAK2 (aa 826-1132); purchased Carna Biosciences; host or cells: baculovirus expression system (insect cells)
T3 sequence (O60674 826-1132): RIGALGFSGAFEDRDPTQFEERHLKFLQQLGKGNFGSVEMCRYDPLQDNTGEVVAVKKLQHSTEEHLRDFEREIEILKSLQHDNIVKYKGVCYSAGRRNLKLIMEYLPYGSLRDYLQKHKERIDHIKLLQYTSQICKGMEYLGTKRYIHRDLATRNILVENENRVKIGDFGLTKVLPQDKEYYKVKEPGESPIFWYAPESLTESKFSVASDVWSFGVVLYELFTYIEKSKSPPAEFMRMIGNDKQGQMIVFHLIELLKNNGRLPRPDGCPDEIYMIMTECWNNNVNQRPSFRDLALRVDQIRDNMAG
Description: as §1, §2, §3

SMILES	IC50 [1]	IC50 [2]	IC50 [3]
C[C@H](Nc1cncc(Nc2ccc[nH]c2=O)n1)c1ccc(F)cn1 [Example 11, 3-[(6-{[(1S)-1-(5-Fluoropyridin-2-yl)ethyl]amino}pyrazin-2-yl)amino]pyridin-2(1H)-one]	< 100 nM	< 100 nM	< 100 nM
Cc1cnc(Nc2ccc[nH]c2=O)nc1N[C@H]1CC[C@H](CC#N)CC1 [Example 13, 2-((1r,4r)-4-(5-Methyl-2-(2-oxo-1,2-dihydropyridin-3-ylamino)pyrimidin-4-ylamino)cyclohexyl)acetonitrile]	< 100 nM	< 100 nM	< 100 nM
C[C@H](Nc1nc(Nc2ccc[nH]c2=O)ncc1O)c1ccc(F)cn1 [Example 5, 3-[(4-{[(1S)-1-(5-fluoropyridin-2-yl)ethyl]amino}-5-hydroxypyrimidin-2-yl)amino]pyridin-2(1H)-one]	< 100 nM	< 100 nM	< 100 nM
COc1cnc(Nc2ccc[nH]c2=O)nc1N[C@@H](C)c1ccc(F)cn1 [Example 4, 3-[(4-{[(1S)-1-(5-fluoropyridin-2-yl)ethyl]amino}-5-methoxypyrimidin-2-yl)amino]pyridin-2(1H)-one]	< 100 nM	< 100 nM	< 100 nM
C[C@H](Nc1nc(Nc2ccc[nH]c2=O)ncc1C(N)=O)c1ccc(F)cn1 [Example 6, (S)-4-(1-(5-fluoropyridin-2-yl)ethylamino)-2-(2-oxo-1,2-dihydropyridin-3-ylamino) pyrimidine-5-carboxamide]	< 100 nM	100 to 1000 nM	< 100 nM
C[C@H](Nc1cccc(Nc2ccc[nH]c2=O)n1)c1ccc(F)cn1 [Example 12]	< 100 nM	100 to 1000 nM	< 100 nM
O=c1[nH]cccc1Nc1nccc(N[C@H]2CC[C@H](CS(=O)(=O)N3CCCC(O)C3)CC2)n1 (relative stereo) [Example 14, 3-({4-[(trans-4-{[(3-hydroxypiperidin-1-yl)sulfonyl]methyl}cyclohexyl)amino]pyrimidin-2-yl}amino)pyridin-2(1H)-one]	100 to 1000 nM	> 1000 nM	< 100 nM
Cc1cnc(Nc2cc(Cl)c[nH]c2=O)nc1N[C@@H](C)c1ccc(F)cn1 [Example 7, (S)-5-chloro-3-(4-(1-(5-fluoropyridin-2-yl)ethylamino)-5-methylpyrimidin-2-ylamino)pyridin-2(1H)-one]	< 100 nM	< 100 nM	< 100 nM

Now from value to molecule:

IC50 [1]	IC50 [2]	IC50 [3]	SMILES
< 100 nM	< 100 nM	< 100 nM	N#CCC(=O)N1CCC[C@@H](Nc2nc(Nc3ccc[nH]c3=O)ncc2F)C1 [Example 17, (R)-3-(3-(5-Fluoro-2-(2-oxo-1,2-dihydropyridin-3-ylamino)pyrimidin-4-ylamino)piperidin-1-yl)-3-oxopropanenitrile]
< 100 nM	< 100 nM	< 100 nM	Cc1c(Nc2ccc[nH]c2=O)nc(N[C@@H]2CCCN(C(=O)CC#N)C2)nc1N1CCOCC1 [Example 22, 3-[(3R)-3-({5-methyl-4-morpholin-4-yl-6-[(2-oxo-1,2-dihydropyridin-3-yl)amino]pyrimidin-2-yl}amino)piperidin-1-yl]-3-oxopropanenitrile]
< 100 nM	100 to 1000 nM	< 100 nM	O=c1[nH]cccc1Nc1ncc(F)c(N[C@@H]2CCCN(c3nnc[nH]3)C2)n1 [Example 18, (R)-3-(4-(1-(4H-1,2,4-Triazol-3-yl)piperidin-3-ylamino)-5-fluoropyrimidin-2-ylamino) pyridin-2(1H)-one]
< 100 nM	< 100 nM	< 100 nM	N#CCC(=O)N1CCC[C@@H](Nc2nc(Nc3ccc[nH]c3=O)nc(N3CCOCC3)c2F)C1 [Example 20, 3-[(3R)-3-({5-fluoro-6-morpholin-4-yl-2-[(2-oxo-1,2-dihydropyridin-3-yl)amino]pyrimidin-4-yl}amino)piperidin-1-yl]-3-oxopropanenitrile]
